Where “and” joins values, the source holds several entries; their conditions need not be identical. Equal entries are not always repeated.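 The compound was tested at five concentrations on cells cultured in 96-well plates, with a 48-hour exposure period. Abbreviation: GI50, concentration required for 50% inhibition of growth. TGI: concentration producing complete growth inhibition.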 *1 amine or outer side, *2 acyl side, *3 side chain or, on linkers, in order; H or OH if unused. Where a SMILES comes first, the peptide text is derived from it. Bridges are numbered along the chain shown (N, C = ends). Roman numbers before positions name the chains, in order. [ ]: non-standard residue; d: D form. Actinocin(9to1) = Cc1c2oc3c(C)ccc(C(=O)[*:1])c3nc-2c(C(=O)[*:2])c(N)c1=O; NMeV = CN[CH](C(=O)O)C(C)C; Sar = CNCC(=O)O
Columns and labels:
Assay in all cases: DTP human tumour cell line panel, 48 h
EKVX NSCLC = system: EKVX NSCLC
MOLT-4 leukemia = system: MOLT-4 leukemia
RXF 393 renal = system: RXF 393 renal
KM12 colon = system: KM12 colon
NCI-H23 lung = system: NCI-H23 lung
NCI/ADR-RES ovarian = system: NCI/ADR-RES ovarian
NCI-H460 lung = system: NCI-H460 lung
HT29 colon = system: HT29 colon
HCT-116 colon = system: HCT-116 colon
MCF7 breast = system: MCF7 breast

SMILES | TGI (EKVX NSCLC) | TGI (MOLT-4 leukemia) | TGI (RXF 393 renal) | TGI (KM12 colon) | TGI (NCI-H23 lung) | TGI (NCI/ADR-RES ovarian) | TGI (NCI-H460 lung) | TGI (HT29 colon) | TGI (HCT-116 colon) | TGI (MCF7 breast) | GI50 (EKVX NSCLC) | GI50 (MOLT-4 leukemia) | GI50 (RXF 393 renal) | GI50 (NCI-H460 lung) | GI50 (NCI/ADR-RES ovarian) | GI50 (KM12 colon) | GI50 (NCI-H23 lung) | GI50 (HT29 colon) | GI50 (HCT-116 colon) | GI50 (MCF7 breast)
C#CC[C@@]12CC(=O)C[C@@H]1CCC1(C2)OCCO1 (tested in a mixture with another compound) | > 100 µM | > 100 µM | > 100 µM | > 100 µM | > 100 µM | > 100 µM | > 100 µM | > 100 µM | > 100 µM | > 100 µM | – | – | – | – | – | – | – | – | – | –
CC(C)(C)c1ccc(C(O)CCCN2CCC(C(O)(c3ccccc3)c3ccccc3)CC2)cc1 (centres undefined) | 2.77 µM | 5.32 µM | 2.27 µM | – | – | – | 2.95 µM and 21.5 µM | 2.23 µM and 20.9 µM | – | – | 1.37 µM | 2.16 µM | 1.08 µM | 1.6 µM and 14.6 µM | – | – | – | – | – | –
Cc1c2oc3c(C)ccc(C(=O)NC4C(=O)NC(Cc5ccccc5)C(=O)N5CCCC5C(=O)N(C)CC(=O)N(C)C(C(C)C)C(=O)OC4C)c3nc-2c(C(=O)NC2C(=O)NC(Cc3ccccc3)C(=O)N3CCCC3C(=O)N(C)CC(=O)N(C)C(C(C)C)C(=O)OC2C)c(N)c1=O (centres undefined) (I: TFP[Sar][NMeV] / II: TFP[Sar][NMeV]; ester I:1-I:C, II:1-II:C; linker I:N-II:N via Actinocin(9to1); configuration not given here) | – | < 0.001 µM | 0.00952 µM and 0.0394 µM | 1.05 µM | 0.0202 µM and 0.0398 µM | > 100 µM | – | 0.0108 µM | 0.00736 µM | > 100 µM | – | – | < 0.001 µM | – | 0.877 µM | – | – | – | – | –
CN1CCN(Cc2c[nH]c3c2C(=O)c2c(c(O)c4ccccc4c2O)C3=O)CC1 | 26.7 µM | > 100 µM | 19 µM | 15.2 µM | 26.9 µM | 25.5 µM | 17.9 µM | > 100 µM | 10.5 µM | 17.7 µM | 13.1 µM | 4.02 µM | 6.22 µM | 5.42 µM | 11.7 µM | 3.46 µM | 12.9 µM | 26.3 µM | 1.92 µM | 5.15 µM

— PubChem BioAssay (NCI)
